Data reported in ChEMBL document CHEMBL1130681, “Synthesis of 5-substituted quinazolinone derivatives and their inhibitory activity in vitro” (Bioorg Med Chem Lett, 1998).

Legend:
Format in all cases: functional, cell-based
L1210 = experiment: Concentration required to inhibit L1210 (mouse lymphocytic leukemia) cell lines
CCRF-CEM = experiment: Concentration required to inhibit CCRF-CEM (human leukemia) cell lines
HT-29 = experiment: Concentration required to inhibit HT-29 (human colon adenocarcinoma) cell lines
LY3.7.2C TK-/- cell line = experiment: Concentration required to inhibit LY3.7.2C TK-/-(mouse lymphoma, thymidine kinase deficient) cell lines

IC50 (L1210) [µM] | IC50 (CCRF-CEM) [µM] | IC50 (HT-29) [µM] | IC50 (LY3.7.2C TK-/- cell line) [µM] | SMILES
0.5 | 0.05 | 1.2 | 0.7 | Cc1ccc2nc(N)nc(O)c2c1Sc1ccc(C(=O)N[C@H](C(=O)O)c2cccc(C(=O)O)c2)cc1
0.7 | 0.2 | 0.6 | 0.7 | COC(=O)c1cccc([C@H](NC(=O)c2ccc(Sc3c(C)ccc4nc(N)nc(O)c34)cc2)C(=O)OC)c1
2 | 5.4 | > 20 | 0.8 | Cc1ccc2nc(N)nc(O)c2c1Sc1ccc(C(=O)N[C@H](C(=O)O)c2ccccc2)cc1
2 | 1.5 | 8.4 | 0.3 | COC(=O)[C@@H](NC(=O)c1ccc(Sc2c(C)ccc3nc(N)nc(O)c23)cc1)c1cccc(O)c1
0.4 | 0.2 | 0.6 | 0.5 | COC(=O)[C@@H](NC(=O)c1ccc(Sc2c(C)ccc3nc(N)nc(O)c23)cc1)c1ccccc1
0.7 | 3.4 | 17 | 0.6 | Cc1ccc2nc(N)nc(O)c2c1Sc1ccc(C(=O)N[C@H](C(=O)O)c2cccc(O)c2)cc1
1.1 | 0.8 | 3.7 | 1.5 | Cc1ccc2nc(N)[nH]c(=O)c2c1Sc1ccncc1 [NOLATREXED]
